Data taken from US7138361B2, “Herbicidal heterocycles” (E. I. du Pont de Nemours and Company, priority 2000, dated 2006).

Assays:
Type in all cases: in vivo
[1] = test system: lambsquarters (Chenopodium album); experiment: Test C preemergence
Procedure, shortened: (§1)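 Test chemicals, formulated in a non-phytotoxic solvent mixture with surfactant, were applied preemergence to planted seeds or postemergence to plants 2 to 18 cm tall (1- to 4-leaf stage). After 12 to 14 days in a greenhouse, injury was visually rated against untreated controls on a 0–100 scale.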

[2] = test system: velvetleaf (Abutilon theophrasti); experiment: Test C preemergence
Procedure, shortened: as §1

[3] = test system: giant foxtail (Setaria faberii); experiment: Test C preemergence
Procedure, shortened: as §1

[4] = test system: morningglory (Ipomoea hederacea); experiment: Test C preemergence
Procedure, shortened: as §1

[5] = test system: woolly cupgrass (Eriochloa villosa); experiment: Test C preemergence
Procedure, shortened: as §1

[6] = test system: crabgrass (Digitaria sanguinalis); experiment: Test C preemergence
Procedure, shortened: as §1

corn (Zea mays) = experiment: Test C preemergence
Procedure, shortened: as §1

soybean (Glycine max) = experiment: Test C preemergence
Procedure, shortened: as §1

[7] = test system: johnsongrass (Sorghum halepense); experiment: Test C preemergence
Procedure, shortened: as §1

Nightshade = experiment: Test C preemergence
[8] = test system: goosegrass (Eleusine indica); experiment: Test C preemergence
Procedure, shortened: as §1

[9] = test system: Surinam grass (Brachiaria decumbens); experiment: Test C preemergence
Procedure, shortened: as §1

[10] = test system: yellow nutsedge (Cyperus esculentus); experiment: Test C preemergence
Procedure, shortened: as §1

[11] = test system: cocklebur (Xanthium strumarium); experiment: Test C preemergence
Procedure, shortened: as §1

[12] = test system: bermudagrass (Cynodon dactylon); experiment: Test C preemergence
Procedure, shortened: as §1

[13] = test system: common ragweed (Ambrosia elatior); experiment: Test C preemergence
Procedure, shortened: as §1

[14] = test system: pigweed (Amaranthus retroflexus); experiment: Test C preemergence
Procedure, shortened: as §1

Sunflower = experiment: Test C preemergence; conditions: Rate 125 g/ha; scale 0 to 100, 0 no effect, 100 complete control
kochia (Kochia scoparia) = experiment: Test C preemergence
Procedure, shortened: as §1

[15] = test system: duck salad (Heteranthera limosa); experiment: Test C flooded paddy test; conditions: for Ducksalad plant response rating: Flooded Paddy, scale 0 to 100, 0 no effect, 100 complete control; for Plant response rating, Ducksalad: scale 0 to 100 (0 no effect, 100 complete control)
Procedure, shortened: (§2)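 Each species was cultivated to 2 leaves in flooded paddy pots, then treated. After a greenhouse period of 12–14 days, the plants were scored visually relative to controls from 0 (no effect) to 100 (complete control).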

[16] = test system: smallflower flatsedge (Cyperus difformis); experiment: Test C flooded paddy test; conditions: for Flatsedge plant response rating: Flooded Paddy, scale 0 to 100, 0 no effect, 100 complete control; for Plant response rating, Flatsedge: scale 0 to 100 (0 no effect, 100 complete control)
Procedure, shortened: as §2

[17] = test system: barnyardgrass (Echinochloa crus-galli); experiment: Test C flooded paddy test; conditions: for Barnyardgrass plant response rating: Flooded Paddy, scale 0 to 100, 0 no effect, 100 complete control; for Plant response rating, Barnyardgrass: scale 0 to 100 (0 no effect, 100 complete control)
Procedure, shortened: as §2

[18] = Rate 125 g/ha, scale 0 to 100, 0 no effect, 100 complete control
[19] = preemergence, Rate 62 g/ha, scale 0 to 100
[20] = preemergence, Rate 500 g/ha, visual evaluation after 12 to 14 days
[21] = preemergence, Rate 250 g/ha, scale 0 to 100, 0 no effect, 100 complete control
[22] = Rate 250 g/ha, scale 0 to 100, 0 no effect, 100 complete control
[23] = flooded paddy test, Rate 125 g/ha
[24] = flooded paddy test, Rate 62 g/ha, visually evaluated after 12 to 14 days, 0 = no effect, 100 = complete control
[25] = preemergence, Rate 31 g/ha, scale 0 to 100
[26] = flooded paddy test, Rate 62 g/ha

CCCC(C)c1ccn(C2CCN(c3cccc(OCC)c3)C2=O)n1 (stereo not drawn) [Compound 129]
Plant response rating, Lambsquarters [1, 18]: 100 | Plant response rating, Lambsquarters [1, 19]: 100 | Plant response rating (0 to 100), Lambsquarters [1, 20]: 100 | Plant response rating, Lambsquarters [1, 21]: 100 | Plant response rating, Velvetleaf [2, 18]: 0 | Plant response rating, Velvetleaf [2, 19]: 0 | Plant response rating (0 to 100), Velvetleaf [2, 20]: 10 | Plant response rating, Velvetleaf [2, 21]: 0 | Plant response rating, Foxtail, Giant [3, 18]: 60 | Plant response rating, Foxtail, Giant [3, 19]: 20 | Plant response rating (0 to 100), Foxtail, Giant [3, 20]: 100 | Plant response rating, Foxtail, Giant [3, 21]: 80 | Plant response rating, Morningglory [4, 18]: 0 | Plant response rating, Morningglory [4, 19]: 0 | Plant response rating (0 to 100), Morningglory [4, 20]: 0 | Plant response rating, Cupgrass, Woolly [5, 18]: 100 | Plant response rating, Cupgrass, Woolly [5, 19]: 90 | Plant response rating (0 to 100), Cupgrass, Woolly [5, 20]: 100 | Plant response rating, Cupgrass, Woolly [5, 21]: 100 | Plant response rating, Crabgrass [6, 18]: 100 | Plant response rating, Crabgrass [6, 19]: 100 | Plant response rating (0 to 100), Crabgrass [6, 20]: 100 | Plant response rating, Crabgrass [6, 21]: 100 | Plant response rating, Corn (corn (Zea mays); [18]): 20 | Plant response rating, Corn (corn (Zea mays); [19]): 0 | Plant response rating (0 to 100), Corn (corn (Zea mays); [20]): 30 | Plant response rating, Corn (corn (Zea mays); [21]): 30 | Plant response rating, Soybean (soybean (Glycine max); [18]): 20 | Plant response rating, Soybean (soybean (Glycine max); [19]): 10 | Plant response rating (0 to 100), Soybean (soybean (Glycine max); [20]): 20 | Plant response rating, Soybean (soybean (Glycine max); [21]): 20 | Plant response rating, Johnsongrass [7, 18]: 70 | Plant response rating, Johnsongrass [7, 19]: 20 | Plant response rating (0 to 100), Johnsongrass [7, 20]: 100 | Plant response rating, Johnsongrass [7, 21]: 100 | Plant response rating, Nightshade (Nightshade; Rate 62 g/ha, scale 0 to 100): 0 | Plant response rating, Nightshade (Nightshade; [18]): 0 | Plant response rating, Nightshade (Nightshade; [22]): 10 | Plant response rating, Goosegrass [8, 18]: 100 | Plant response rating, Goosegrass [8, 19]: 100 | Plant response rating (0 to 100), Goosegrass [8, 20]: 100 | Plant response rating, Goosegrass [8, 21]: 100 | Plant response rating, Surinam grass [9, 18]: 80 | Plant response rating, Surinam grass [9, 19]: 80 | Plant response rating (0 to 100), Surinam grass [9, 20]: 100 | Plant response rating, Surinam grass [9, 21]: 90 | Plant response rating, Nutsedge [10, 18]: 0 | Plant response rating, Nutsedge [10, 19]: 0 | Plant response rating (0 to 100), Nutsedge [10, 20]: 90 | Plant response rating, Nutsedge [10, 21]: 50 | Plant response rating, Cocklebur [11, 18]: 0 | Plant response rating, Cocklebur [11, 19]: 0 | Plant response rating (0 to 100), Cocklebur [11, 20]: 0 | Plant response rating, Cocklebur [11, 21]: 0 | Plant response rating, Bermudagrass [12, 18]: 100 | Plant response rating, Bermudagrass [12, 19]: 100 | Plant response rating (0 to 100 where 0 is no effect and 100 is complete control), Bermudagrass [12, 20]: 100 | Plant response rating, Bermudagrass [12, 21]: 100 | Plant response rating, Ragweed, Common [13, 18]: 0 | Plant response rating, Ragweed, Common [13, 19]: 0 | Plant response rating (0 to 100), Ragweed, Common [13, 20]: 100 | Plant response rating, Ragweed, Common [13, 21]: 100 | Plant response rating, Pigweed [14, 18]: 100 | Plant response rating, Pigweed [14, 19]: 20 | Plant response rating (0 to 100), Pigweed [14, 20]: 100 | Plant response rating, Pigweed [14, 21]: 60 | Plant response rating, Sunflower (Sunflower): 0 | Plant response rating, Kochia (kochia (Kochia scoparia); [18]): 100 | Plant response rating, Kochia (kochia (Kochia scoparia); [19]): 0 | Plant response rating (0 to 100), Kochia (kochia (Kochia scoparia); [20]): 100 | Plant response rating, Kochia (kochia (Kochia scoparia); [21]): 100 | Ducksalad plant response rating ([15]; Rate 250 g/ha): 90 | Ducksalad plant response rating ([15]; Rate 500 g/ha): 90 | Plant response rating, Ducksalad [15, 23]: 30 | Plant response rating (scale 0 to 100), Ducksalad [15, 24]: 20 | Flatsedge plant response rating ([16]; Rate 250 g/ha): 90 | Flatsedge plant response rating ([16]; Rate 500 g/ha): 90 | Plant response rating, Flatsedge [16, 23]: 80 | Plant response rating (scale 0 to 100), Flatsedge [16, 24]: 70 | Barnyardgrass plant response rating ([17]; Rate 250 g/ha): 80 | Barnyardgrass plant response rating ([17]; Rate 500 g/ha): 100 | Plant response rating, Barnyardgrass [17, 23]: 50 | Plant response rating (scale 0 to 100), Barnyardgrass [17, 24]: 30

CC(C)(C)c1ccn(C2CCN(c3cccc([S+]([O-])C(F)(F)F)c3)C2=O)n1 (stereo not drawn) [Compound 101]
Plant response rating, Lambsquarters [1, 18]: 100 | Plant response rating, Lambsquarters [1, 25]: 0 | Plant response rating, Lambsquarters [1, 19]: 0 | Plant response rating, Lambsquarters [1, 21]: 100 | Plant response rating, Velvetleaf [2, 18]: 50 | Plant response rating, Velvetleaf [2, 25]: 20 | Plant response rating, Velvetleaf [2, 19]: 20 | Plant response rating, Velvetleaf [2, 21]: 90 | Plant response rating, Foxtail, Giant [3, 18]: 40 | Plant response rating, Foxtail, Giant [3, 25]: 0 | Plant response rating, Foxtail, Giant [3, 19]: 40 | Plant response rating, Foxtail, Giant [3, 21]: 100 | Plant response rating, Morningglory [4, 18]: 0 | Plant response rating, Morningglory [4, 25]: 0 | Plant response rating, Morningglory [4, 19]: 0 | Plant response rating, Morningglory [4, 21]: 100 | Plant response rating, Cupgrass, Woolly [5, 18]: 20 | Plant response rating, Cupgrass, Woolly [5, 25]: 0 | Plant response rating, Cupgrass, Woolly [5, 19]: 0 | Plant response rating, Cupgrass, Woolly [5, 21]: 100 | Plant response rating, Crabgrass [6, 18]: 100 | Plant response rating, Crabgrass [6, 25]: 90 | Plant response rating, Crabgrass [6, 19]: 100 | Plant response rating, Crabgrass [6, 21]: 100 | Plant response rating, Corn (corn (Zea mays); [18]): 0 | Plant response rating, Corn (corn (Zea mays); [25]): 0 | Plant response rating, Corn (corn (Zea mays); [19]): 0 | Plant response rating, Corn (corn (Zea mays); [21]): 60 | Plant response rating, Soybean (soybean (Glycine max); [18]): 0 | Plant response rating, Soybean (soybean (Glycine max); [25]): 0 | Plant response rating, Soybean (soybean (Glycine max); [19]): 0 | Plant response rating, Soybean (soybean (Glycine max); [21]): 50 | Plant response rating, Johnsongrass [7, 18]: 40 | Plant response rating, Johnsongrass [7, 25]: 0 | Plant response rating, Johnsongrass [7, 19]: 10 | Plant response rating, Johnsongrass [7, 21]: 90 | Plant response rating, Nightshade (Nightshade; Rate 31 g/ha, scale 0 to 100): 0 | Plant response rating, Nightshade (Nightshade; Rate 62 g/ha, scale 0 to 100): 0 | Plant response rating, Nightshade (Nightshade; [18]): 90 | Plant response rating, Nightshade (Nightshade; [22]): 100 | Plant response rating, Goosegrass [8, 18]: 100 | Plant response rating, Goosegrass [8, 25]: 10 | Plant response rating, Goosegrass [8, 19]: 100 | Plant response rating, Goosegrass [8, 21]: 100 | Plant response rating, Surinam grass [9, 18]: 20 | Plant response rating, Surinam grass [9, 25]: 0 | Plant response rating, Surinam grass [9, 19]: 0 | Plant response rating, Surinam grass [9, 21]: 40 | Plant response rating, Nutsedge [10, 18]: 0 | Plant response rating, Nutsedge [10, 25]: 0 | Plant response rating, Nutsedge [10, 19]: 0 | Plant response rating, Nutsedge [10, 21]: 0 | Plant response rating, Cocklebur [11, 18]: 0 | Plant response rating, Cocklebur [11, 25]: 0 | Plant response rating, Cocklebur [11, 19]: 0 | Plant response rating, Cocklebur [11, 21]: 50 | Plant response rating, Bermudagrass [12, 18]: 100 | Plant response rating, Bermudagrass [12, 25]: 40 | Plant response rating, Bermudagrass [12, 19]: 40 | Plant response rating, Bermudagrass [12, 21]: 100 | Plant response rating, Ragweed, Common [13, 18]: 100 | Plant response rating, Ragweed, Common [13, 25]: 0 | Plant response rating, Ragweed, Common [13, 19]: 0 | Plant response rating, Ragweed, Common [13, 21]: 100 | Plant response rating, Pigweed [14, 18]: 0 | Plant response rating, Pigweed [14, 25]: 0 | Plant response rating, Pigweed [14, 19]: 0 | Plant response rating, Pigweed [14, 21]: 10 | Plant response rating, Sunflower (Sunflower): 0 | Plant response rating, Kochia (kochia (Kochia scoparia); [18]): 0 | Plant response rating, Kochia (kochia (Kochia scoparia); [25]): 0 | Plant response rating, Kochia (kochia (Kochia scoparia); [19]): 0 | Plant response rating, Kochia (kochia (Kochia scoparia); [21]): 0 | Ducksalad plant response rating ([15]; Rate 250 g/ha): 100 | Ducksalad plant response rating ([15]; Rate 500 g/ha): 100 | Plant response rating, Ducksalad [15, 26]: 0 | Plant response rating, Ducksalad [15, 23]: 90 | Flatsedge plant response rating ([16]; Rate 250 g/ha): 90 | Flatsedge plant response rating ([16]; Rate 500 g/ha): 100 | Plant response rating, Flatsedge [16, 26]: 20 | Plant response rating, Flatsedge [16, 23]: 90 | Barnyardgrass plant response rating ([17]; Rate 250 g/ha): 50 | Barnyardgrass plant response rating ([17]; Rate 500 g/ha): 90 | Plant response rating, Barnyardgrass [17, 26]: 0 | Plant response rating, Barnyardgrass [17, 23]: 40
